Source: article PMC4555001 (Bioorganic & medicinal chemistry, 2015)
Entries after “also recorded” stand apart in the source; their conditions may differ.

What was measured:
[1] = tested on: ETA receptors; test: Inhibition of ET-1 induced vasoconstriction in the gerbil spiral modiolar artery; conditions: agonist 1 nM ET-1; antagonist 0.1-1 μM; competitive inhibition assumed
[2] = tested on: ETA receptor; conditions: rat cardiac membranes; ref [6]-[9]; cited from earlier work
[3] = molecular target: ETA receptor; conditions: read-out: Ki, ET-1 induced contraction of rat aortic strips; ref [6]-[9]; cited from earlier work
[4] = tested on: voltage-gated Na^+ currents (TTX-sensitive); test: Patch clamp recording of voltage-gated Na+ currents in mouse DRG neurons; format: cell-based
[5] = tested on: voltage-gated K^+ currents; test: Patch clamp recording of voltage-gated K+ currents in mouse DRG neurons; format: cell-based
[6] = tested on: voltage-gated Ca^2+ currents (LVA, principally Cav3.2 T-type; HVA, mainly L-type); test: Patch clamp recording of voltage-gated Ca2+ currents in mouse DRG neurons; format: cell-based
[7] = tested on: ETA receptors; conditions: ref [25], cited from earlier work

CC1(C)C(=O)CC[C@]2(C)[C@H]3CC[C@@H]4CCC(=O)C=C4[C@]3(C)CC[C@@H]12 [(+)-1, (+)-(4aR,10bR)-1,1,4a,10b-Tetramethyl-4,4a,4b,5,6,6a,7,8,10b,11,12,12a-dodecahydro-chrysene-2,9(1H,3H)-dione]
A2 (putative affinity value) [1]: 193 nM

CC1(C)C(=O)CC[C@]2(C)[C@H]3CC[C@@H]4CCC(=O)C[C@@]4(C#N)[C@]3(C)CC[C@@H]12 [(+)-2, (+)-(4aS,4bR,6aR,10aR,10bR,12aR)-4b,7,7,10a-Tetramethyl-3,8-dioxo-octadecahydrochrysene-4a-carbonitrile]
A2 (putative affinity value) [1]: 134 nM

CC1(C)CC[C@]2(C(=O)O)CC[C@]3(COC(=O)/C=C/c4ccc(O)c(O)c4)C(=CC[C@@H]4[C@@]5(C)CCC(=O)C(C)(C)[C@@H]5CC[C@]43C)[C@@H]2C1 [(+)-myriceric acid A, myriceric acid A]
Effect on specific binding of [125I]endothelin-1 [2]: antagonizes specific binding
Ki [3]: 66 ± 15 nM
A2 (putative affinity value) [1]: 85 nM

CC1(C)[C@@H]2CC[C@]3(C)[C@H](CC[C@@H]4CC=C(O[Si](C)(C)C(C)(C)C)C[C@]43C=N)[C@@]2(C)CCC12OCCO2 [(-)-3, (-)-{(4aR,4bR,6aR,10a S,10bR,12aR)-9-(tert-Butyldimethylsilyloxy)-1,1,4a,10b-tetramethyl-3,4,4a,4b,5,6,6a,7,10,10a,10b,11,12,12a-tetradecahydro-1H-spiro[chrysene-2,2′-[1,3]dioxolane]-10a-yl}methanimin]
Inhibition of Na+ currents ([4]; 0.3 μM (as stated in conclusions)): little inhibitions
Inhibition of Na+ currents ([4]; 3 μM): non-specific inhibition
Inhibition of Na+ currents ([4]; 0.1 - 0.3 μM, depolarizing to 0 mV for 20 ms): little inhibition; also recorded: little inhibitory effect
Inhibition of K+ currents ([5]; 3 μM): non-specific inhibition
Inhibition of K+ currents ([5]; 0.1 - 0.3 μM, depolarizing to 70 mV for 300 ms): little inhibition; also recorded: little inhibitory effect
Inhibition of Ca2+ currents ([6]; 3 μM): completely block; also recorded: non-specific inhibition
Inhibition of Ca2+ currents ([6]; 0.1 and 0.3 μM, step to -10 mV from Vh -90 mV): substantially inhibited
Inhibition of LVA- and HVA-Ca2+ currents ([6]; bath application 0.1 - 3 μM): concentration-dependent inhibition; also recorded: concentration-dependent blockage
A2 (putative affinity value) [1]: 93 nM

CC1(C)[C@@H]2CC[C@]3(C)[C@H](CC[C@@H]4CC[C@@]5(O)C[C@]43C=N5)[C@@]2(C)CCC12OCCO2 [(-)-4, (-)-Spiro-(10a, 9)-{(4aR,4bR,6aR,10aS,10bR,12aR)-1,1,4a,10b-tetramethyl-3,4,4a,4b,5,6,6a,7,10,10a,10b,11,12,12a-tetradecahydro-1H-spiro[chrysene-2,2′-[1,3]dioxolane]-10a-yl}methyl-hemiaminal]
A2 (putative affinity value) [1]: 301 nM

CC1(C)C(=O)CC[C@]2(C)[C@H]3CCc4ccc(O)cc4[C@]3(C)CC[C@@H]12 [(-)-5, (-)-(4aR,4bR,10bR)-9-Hydroxy-1,1,4a,10b-tetramethyl-3,4,4a,4b,5,6,10b,11,12,12a-decahydrochrysen-2(1H)-one]
A2 (putative affinity value) [1]: 205 nM

CC1(C)C(=O)CC[C@]2(C)[C@H]3CCc4ccc(OCCO)cc4[C@]3(C)CC[C@@H]12 [(-)-6, (-)-(4aR,10bR)-9-(2-Hydroxyethoxy)-1,1,4a,10b-tetramethyl-4,4a,5,6,10b,11,12,12a-octahydro-(1 H,3H,4bH)-chrysen-2-one]
A2 (putative affinity value) [1]: 318 nM

Endothelin-1 [ET-1]
Emax, normalized maximal vasoconstriction ([7]; normalized to 10 mM Ca2+ vasoconstriction): 140%
EC50 ([7]; read-out: EC50 of vasoconstriction, gerbil spiral modiolar artery): 0.74 nM
